According to ChEMBL document CHEMBL5705896 (ACS Chem Biol, 2013):
Active and inactive are the calls of the source. The calls are words filed in the database; no cut-off is given here.

Tests used:
[1] = Inhibition of full length human N-terminal his tagged ABL (2 to 1130 end residues) expressed in baculovirus expression system using ABLtide as substrate at 10 uM by mobility shift assay relative to control; conditions: condition weaver syndrome
[2] = biological target: Alpha-2C adrenergic receptor (Homo sapiens) (UniProt P18825); assay: Inhibition of Alpha2C receptor (unknown origin) at 10 uM by radioligand binding assay relative to control
[3] = biological target: Mitogen-activated protein kinase 1 (Homo sapiens) (UniProt P28482); assay: Inhibition of full length human N-terminal GST tagged Erk2 (1 to 360 end residues) expressed in Escherichia coli expression system using modified Erktide as substrate at 10 uM by mobility shift assay relative to control
[4] = biological target: Serine/threonine-protein kinase D2 (Homo sapiens) (UniProt Q9BZL6); assay: Inhibition of full length human N-terminal GST tagged PKD2 (1 to 878 end residues) expressed in baculovirus expression system using GS as peptide at 10 uM by mobility shift assay relative to control
[5] = biological target: Serine/threonine-protein kinase PAK 2 (Homo sapiens) (UniProt Q13177); assay: Inhibition of full length human N-terminal GST tagged PAK2 (1 to 524 end residues) expressed in baculovirus expression system using DAPK1tide as substrate at 10 uM by mobility shift assay relative to control
[6] = biological target: Sigma non-opioid intracellular receptor 1 (Homo sapiens) (UniProt Q99720); assay: Inhibition of Sigma1 receptor (unknown origin) at 10 uM by radioligand binding assay relative to control
[7] = biological target: Mitogen-activated protein kinase 14 (Homo sapiens) (UniProt Q16539); assay: Inhibition of truncated human N-terminal GST-tagged p38 alpha (9 to 352 residues) expressed in Escherichia coli expression system using modified Erktide as substrate at 10 uM by mobility shift assay relative to control
[8] = system: DB; assay: Antiproliferative activity against human DB cells assessed as reduction in cell viability at 100 to 5000 nM measured after 3 days by cell proliferation assay; format: functional, cell-based; conditions: dose 100-5000 nM, time 3.0 day
[9] = biological target: Histone-lysine N-methyltransferase, H3 lysine-79 specific (Homo sapiens, UniProt Q8TEK3); assay: Inhibition of DOT1L (unknown origin) using [3H-SAM] as substrate incubated for 1 hr by scintillation proximity assay
[10] = biological target: Ephrin type-B receptor 4 (Homo sapiens) (UniProt P54760); assay: Inhibition of human cytoplasmic domain N-terminal GST tagged EPHB4 (577 to 987 end residues) expressed in baculovirus expression system using Blk/lyntide as substrate at 10 uM by mobility shift assay relative to control
[11] = biological target: N-lysine methyltransferase KMT5A (Homo sapiens, UniProt Q9NQR1); assay: Inhibition of SETD8 (unknown origin) using [3H-SAM] as substrate incubated for 1 hr by scintillation proximity assay
[12] = biological target: Protein arginine N-methyltransferase 5 (Homo sapiens, UniProt O14744); assay: Inhibition of PRMT5 (unknown origin) using [3H-SAM] as substrate incubated for 1 hr by scintillation proximity assay
[13] = biological target: Sigma intracellular receptor 2 (Homo sapiens, UniProt Q5BJF2); assay: Binding affinity to sigma 2 receptor (unknown origin) assessed as inhibition constant
[14] = biological target: D(4) dopamine receptor (Homo sapiens) (UniProt P21917); assay: Inhibition of dopamine D4 receptor (unknown origin) at 10 uM by radioligand binding assay relative to control
[15] = biological target: Histone-lysine N-methyltransferase EHMT2 (Homo sapiens, UniProt Q96KQ7); assay: Inhibition of G9a (unknown origin) using [3H-SAM] as substrate incubated for 1 hr by scintillation proximity assay
[16] = system: DB; assay: Downregulation of EZH2 level in human DB cells at 3000 nM measured after 3 days; format: functional, cell-based; conditions: time 3.0 day
[17] = biological target: Protein arginine N-methyltransferase 1 (Homo sapiens, UniProt Q99873); assay: Inhibition of PRMT1 (unknown origin) using [3H-SAM] as substrate incubated for 1 hr by scintillation proximity assay
[18] = biological target: Inhibitor of nuclear factor kappa-B kinase subunit beta (Homo sapiens) (UniProt O14920); assay: Inhibition of truncated human N-terminal his-tagged IKK beta (1 to 662 residues) expressed in baculovirus expression system using modified IkappaB-alpha derived peptide as substrate at 10 uM by mobility shift assay relative to control
[19] = biological target: CDK2/Cyclin A2 (Homo sapiens) (UniProt P24941+P20248); assay: Inhibition of full length human N-terminal GST tagged CDK2 (1 to 298 residues)/GST tagged CycA2 (1 to 432 end residues) expressed in baculovirus expression system using histone H1 as substrate at 10 uM by mobility shift assay relative to control
[20] = biological target: 5-hydroxytryptamine receptor 6 (Homo sapiens) (UniProt P50406); assay: Inhibition of 5-HT6 receptor (unknown origin) at 10 uM by radioligand binding assay relative to control
[21] = biological target: High affinity nerve growth factor receptor (Homo sapiens) (UniProt P04629); assay: Inhibition of human cytoplasmic domain N-terminal GST tagged TRKA (436 to 790 end residues) expressed in baculovirus expression system using CSKtide as substrate at 10 uM by mobility shift assay relative to control
[22] = system: DB; assay: Antiproliferative activity against human DB cells assessed as reduction in cell viability at 5000 nM by cell proliferation assay relative to control; format: functional
[23] = species: Homo sapiens; assay: Inhibition of BZP (unknown origin) at 10 uM by radioligand binding assay relative to control
[24] = biological target: Proto-oncogene tyrosine-protein kinase Src (Homo sapiens) (UniProt P12931); assay: Inhibition of full length human N-terminal GST tagged SRC (1 to 536 end residues) expressed in baculovirus expression system using Srctide as substrate at 10 uM by mobility shift assay relative to control
[25] = biological target: Serine/threonine-protein kinase pim-1 (Homo sapiens) (UniProt P11309); assay: Inhibition of full length human N-terminal his-tagged PIM1 (1 to 313 end residues) expressed in baculovirus expression system using S6K2 peptide as substrate at 10 uM by mobility shift assay relative to control
[26] = biological target: Death-associated protein kinase 1 (Homo sapiens) (UniProt P53355); assay: Inhibition of human catalytic domain N-terminal GST tagged DAPK1 (1 to 289 residues) expressed in baculovirus expression system using DAPK1tide as substrate at 10 uM by mobility shift assay relative to control
[27] = biological target: 5-hydroxytryptamine receptor 1E (Homo sapiens) (UniProt P28566); assay: Inhibition of 5-HT1E receptor (unknown origin) at 10 uM by radioligand binding assay relative to control
[28] = biological target: Ephrin type-A receptor 2 (Homo sapiens) (UniProt P29317); assay: Inhibition of human cytoplasmic domain N-terminal GST tagged EPHA2 (572 to 976 end residues) expressed in baculovirus expression system using Blk/lyntide as substrate at 10 uM by mobility shift assay relative to control
[29] = biological target: Delta-type opioid receptor (Homo sapiens) (UniProt P41143); assay: Inhibition of DOR (unknown origin) at 10 uM by radioligand binding assay relative to control
[30] = biological target: Histamine H2 receptor (Homo sapiens) (UniProt P25021); assay: Inhibition of H2 receptor (unknown origin) at 10 uM by radioligand binding assay relative to control

CCCc1cc(C)[nH]c(=O)c1CNC(=O)c1cc(-c2ccc(N3CCN(C(C)C)CC3)nc2)cc2c1cnn2C(C)C
inhibition at 10 µM [1]: -4%
inhibition [2]: 47%
inhibition [3]: 3%
inhibition [4]: 5%
inhibition [5]: 4%
inhibition [6]: 57%
inhibition [7]: 0%
Activity [8]: inactive
IC50 [9]: > 100 µM
inhibition [10]: -6%
IC50 [11]: > 100 µM
IC50 [12]: > 100 µM
Ki [13]: 0.065 µM
inhibition [14]: 2%
IC50 [15]: > 100 µM
Activity [16]: inactive
IC50 [17]: > 100 µM
inhibition [18]: -3%
inhibition [19]: -3%
inhibition [20]: 11%
inhibition [21]: 7%
Activity [22]: 100%
inhibition [23]: -6%
inhibition [24]: -1%
inhibition [25]: 1%
inhibition [26]: -4%
inhibition [27]: 2%
inhibition [28]: -6%
inhibition [29]: 21%
inhibition [30]: 30%
